Measurements as given in patent US12697326B2, “Methods of treating hepatic encephalopathy” (SALIX PHARMACEUTICALS, INC., priority 2008, dated 2026).

Test system: breakthrough HE episode in subjects with hepatic encephalopathy (HE)
Assay: Time to first breakthrough (overt) HE episode, first study, rifaximin vs placebo
Assay type: in vivo, human
Details: for Cumulative number of events / Number of events / Probability of no breakthrough overt HE (Kaplan-Meier event-free estimate): ITT, first breakthrough overt HE
From the text: An increase in the Conn score of greater than or equal to grade 2 was considered as a breakthrough HE episode.
An efficacy endpoint was the time to first breakthrough overt HE episode. A breakthrough overt HE episode was defined as an increase of Conn score to Grade ≥2 (e.g., 0) or 1 to ≥2) or an increase in Conn and asterixis score of 1 grade each for those subjects who entered the study with a Conn score of 0. Time to breakthrough overt HE episode was the duration from time of first dose of study drug to the first breakthrough overt HE episode. […] Subjects who terminated early for reasons other than breakthrough overt HE were contacted at 6 months from randomization to determine if subjects had experienced a breakthrough overt HE episode or other outcome (e.g., mortality status); and, if the subject had no breakthrough overt HE event prior to contact, he/she was censored at the time of contact. […] Subjects in the study had ≥2 episodes of overt HE equivalent to Conn score ≥2 within 6 months prior to screening (i.e., subjects had documented recurrent, overt HE). At the baseline assessment, subjects were in remission with a Conn score of 0 or 1. A breakthrough overt HE episode, as defined above, was a marked deterioration in neurological function.
Presented herein are the results of the first study and second study. […] The primary efficacy endpoint was the time to breakthrough overt HE. Breakthrough overt HE was defined as an increase of Conn score to Grade ≥2 (e.g., 0 or 1 to ≥2) or an increase in Conn and asterixis score of 1 grade each for those subjects who entered the study with a Conn score of 0. Subjects discontinued from the study at the time of breakthrough overt HE episode. After participation in the first study, subjects had the option to enroll in the open-label, treatment-extension study (the second study).
FIG. 1 illustrates Kaplan-Meier estimates of time to first breakthrough overt HE episode by treatment group in the ITT population. Table 18 presents Kaplan-Meier estimates of the proportions of subjects who experienced breakthrough overt HE over the course of the Treatment Period and results of statistical analyses. […] Subjects who terminated early for reasons other than breakthrough overt HE (eg, liver transplant, AE, subject request) were contacted at 6 months from date of randomization to determine if subjects had experienced a breakthrough overt HE episode or other outcome (e.g., mortality status). Subjects without breakthrough overt HE were censored at the time of contact or death, whichever was earlier.

[1] = breakthrough HE episode by baseline Conn score level, 550 mg BID, N = 93, Days >= 168
[2] = breakthrough HE episode by baseline Conn score level; 550 mg BID; N = 93; Days [0-28)
[3] = breakthrough HE episode by baseline Conn score level; 550 mg BID; N = 93; Days [28-56)
[4] = breakthrough HE episode by baseline Conn score level; 550 mg BID; N = 93; Days [56-84)
[5] = breakthrough HE episode by baseline Conn score level; 550 mg BID; N = 93; Days [84-140)
[6] = breakthrough HE episode by baseline Conn score level; 550 mg BID; N = 93; Days [140-168)
[7] = breakthrough HE episode by baseline MELD score level, 550 mg BID, N = 11, Days >=168
[8] = breakthrough HE episode by baseline MELD score level; 550 mg BID; N = 11; Days [0-28)
[9] = breakthrough HE episode by baseline MELD score level; 550 mg BID; N = 11; Days [28-56)
[10] = breakthrough HE episode by baseline MELD score level; 550 mg BID; N = 11; Days [56-84)
[11] = breakthrough HE episode by baseline MELD score level; 550 mg BID; N = 11; Days [84-140)
[12] = breakthrough HE episode by baseline MELD score level; 550 mg BID; N = 11; Days [140-168)
[13] = breakthrough HE episode by baseline MELD score level, 550 mg BID, N = 34, Days >=168
[14] = breakthrough HE episode by baseline MELD score level; 550 mg BID; N = 34; Days [0-28)
[15] = breakthrough HE episode by baseline MELD score level; 550 mg BID; N = 34; Days [28-56)
[16] = breakthrough HE episode by baseline MELD score level; 550 mg BID; N = 34; Days [56-84)
[17] = breakthrough HE episode by baseline MELD score level; 550 mg BID; N = 34; Days [84-140)
[18] = breakthrough HE episode by baseline MELD score level; 550 mg BID; N = 34; Days [140-168)
[19] = breakthrough HE episode by baseline MELD score level, 550 mg BID, N = 85, Days >=168
[20] = breakthrough HE episode by baseline MELD score level; 550 mg BID; N = 85; Days [0-28)
[21] = breakthrough HE episode by baseline MELD score level; 550 mg BID; N = 85; Days [28-56)
[22] = breakthrough HE episode by baseline MELD score level; 550 mg BID; N = 85; Days [56-84)
[23] = breakthrough HE episode by baseline MELD score level; 550 mg BID; N = 85; Days [84-140)
[24] = breakthrough HE episode by baseline MELD score level; 550 mg BID; N = 85; Days [140-168)
[25] = breakthrough HE episode by prior lactulose use, 550 mg BID, N = 123, Days >=168
[26] = breakthrough HE episode by prior lactulose use; 550 mg BID; N = 123; Days [0-28)
[27] = breakthrough HE episode by prior lactulose use; 550 mg BID; N = 123; Days [28-56)
[28] = breakthrough HE episode by prior lactulose use; 550 mg BID; N = 123; Days [56-84)
[29] = breakthrough HE episode by prior lactulose use; 550 mg BID; N = 123; Days [84-140)
[30] = breakthrough HE episode by prior lactulose use; 550 mg BID; N = 123; Days [140-168)
[31] = breakthrough HE episode by prior lactulose use, 550 mg BID, N = 127, Days >=168
[32] = breakthrough HE episode by prior lactulose use; 550 mg BID; N = 127; Days [0-28)
[33] = breakthrough HE episode by prior lactulose use, 550 mg BID, N = 127, Days [28-56]
[34] = breakthrough HE episode by prior lactulose use, 550 mg BID, N = 127, Days [56-84]
[35] = breakthrough HE episode by prior lactulose use; 550 mg BID; N = 127; Days [84-140)
[36] = breakthrough HE episode by prior lactulose use; 550 mg BID; N = 127; Days [140-168)
[37] = breakthrough HE episode, 550 mg BID, N = 140, Days >=168
[38] = breakthrough HE episode; 550 mg BID; N = 140; Days [0-28)
[39] = breakthrough HE episode; 550 mg BID; N = 140; Days [28-56)
[40] = breakthrough HE episode; 550 mg BID; N = 140; Days [56-84)
[41] = breakthrough HE episode; 550 mg BID; N = 140; Days [84-140)
[42] = breakthrough HE episode; 550 mg BID; N = 140; Days [140-168)
[43] = first study, N = 140, treatment interval 0 to <28 days
[44] = first study, N = 140, treatment interval 28 to 56 days
[45] = first study, N = 140, treatment interval 56 to <84 days
[46] = first study, N = 140, treatment interval 84 to <149 days
[47] = first study, N = 140, treatment interval 140 to <168 days
[48] = first study, N = 140, treatment interval ≥168 days

CO[C@H]1/C=C/O[C@@]2(C)Oc3c(C)c(O)c4c(O)c(c5c(nc6cc(C)ccn65)c4c3C2=O)NC(=O)/C(C)=C\C=C\[C@H](C)[C@H](O)[C@@H](C)[C@@H](O)[C@@H](C)[C@H](OC(C)=O)[C@@H]1C [Rifaximin]
Cumulative Occurrences of Events [1]: 19 | Occurrences of Events [1]: 0 | Survival [1]: 0.7924 | Occurrences of Events [2]: 11 | Survival [2]: 1.0000 | Occurrences of Events [3]: 3 | Survival [3]: 0.8817 | Occurrences of Events [4]: 1 | Survival [4]: 0.8491 | Occurrences of Events [5]: 3 | Survival [5]: 0.8380 | Occurrences of Events [6]: 1 | Survival [6]: 0.8042 | Cumulative Occurrences of Events [7]: 4 | Occurrences of Events [7]: 0 | Survival [7]: 0.6364 | Cumulative Occurrences of Events [8]: 1 | Occurrences of Events [8]: 1 | Survival [8]: 1.0000 | Cumulative Occurrences of Events [9]: 1 | Occurrences of Events [9]: 0 | Survival [9]: 0.9091 | Cumulative Occurrences of Events [10]: 4 | Occurrences of Events [10]: 3 | Survival [10]: 0.9091 | Cumulative Occurrences of Events [11]: 4 | Occurrences of Events [11]: 0 | Survival [11]: 0.6364 | Cumulative Occurrences of Events [12]: 4 | Occurrences of Events [12]: 0 | Survival [12]: 0.6364 | Cumulative Occurrences of Events [13]: 2 | Occurrences of Events [13]: 0 | Survival [13]: 0.9398 | Cumulative Occurrences of Events [14]: 1 | Occurrences of Events [14]: 1 | Survival [14]: 1.0000 | Cumulative Occurrences of Events [15]: 1 | Occurrences of Events [15]: 0 | Survival [15]: 0.9706 | Cumulative Occurrences of Events [16]: 1 | Occurrences of Events [16]: 0 | Survival [16]: 0.9706 | Cumulative Occurrences of Events [17]: 2 | Occurrences of Events [17]: 1 | Survival [17]: 0.9706 | Cumulative Occurrences of Events [18]: 2 | Occurrences of Events [18]: 0 | Survival [18]: 0.9398 | Cumulative Occurrences of Events [19]: 20 | Occurrences of Events [19]: 0 | Survival [19]: 0.7580 | Cumulative Occurrences of Events [20]: 8 | Occurrences of Events [20]: 8 | Survival [20]: 1.0000 | Cumulative Occurrences of Events [21]: 10 | Occurrences of Events [21]: 2 | Survival [21]: 0.9059 | Cumulative Occurrences of Events [22]: 13 | Occurrences of Events [22]: 3 | Survival [22]: 0.8822 | Cumulative Occurrences of Events [23]: 19 | Occurrences of Events [23]: 6 | Survival [23]: 0.8459 | Cumulative Occurrences of Events [24]: 20 | Occurrences of Events [24]: 1 | Survival [24]: 0.7713 | Cumulative Occurrences of Events [25]: 29 | Occurrences of Events [25]: 0 | Survival [25]: 0.7586 | Cumulative Occurrences of Events [26]: 12 | Occurrences of Events [26]: 12 | Survival [26]: 1.0000 | Cumulative Occurrences of Events [27]: 16 | Occurrences of Events [27]: 4 | Survival [27]: 0.9024 | Cumulative Occurrences of Events [28]: 21 | Occurrences of Events [28]: 5 | Survival [28]: 0.8696 | Cumulative Occurrences of Events [29]: 28 | Occurrences of Events [29]: 7 | Survival [29]: 0.8278 | Cumulative Occurrences of Events [30]: 29 | Occurrences of Events [30]: 1 | Survival [30]: 0.7678 | Cumulative Occurrences of Events [31]: 29 | Occurrences of Events [31]: 0 | Survival [31]: 0.7666 | Cumulative Occurrences of Events [32]: 12 | Occurrences of Events [32]: 12 | Survival [32]: 1.0000 | Cumulative Occurrences of Events [33]: 16 | Occurrences of Events [33]: 4 | Survival [33]: 0.9055 | Cumulative Occurrences of Events [34]: 22 | Occurrences of Events [34]: 6 | Survival [34]: 0.8737 | Cumulative Occurrences of Events [35]: 28 | Occurrences of Events [35]: 6 | Survival [35]: 0.8252 | Cumulative Occurrences of Events [36]: 25 | Occurrences of Events [36]: 1 | Survival [36]: 0.7754 | Cumulative Occurrences of Events [37]: 31 | Occurrences of Events [37]: 0 | Survival [37]: 0.7740 | Cumulative Occurrences of Events [38]: 13 | Occurrences of Events [38]: 13 | Survival [38]: 1.0000 | Cumulative Occurrences of Events [39]: 17 | Occurrences of Events [39]: 4 | Survival [39]: 0.9071 | Cumulative Occurrences of Events [40]: 23 | Occurrences of Events [40]: 6 | Survival [40]: 0.8783 | Cumulative Occurrences of Events [41]: 30 | Occurrences of Events [41]: 7 | Survival [41]: 0.8344 | Cumulative Occurrences of Events [42]: 31 | Occurrences of Events [42]: 1 | Survival [42]: 0.7820 | reduction, compared with placebo, in the risk of a breakthrough overt HE episode after adjusting for prognostic factors (first study): 60% | Cumulative number of events [43]: 13 | Number of events [43]: 13 | Probability of no breakthrough overt HE (Kaplan-Meier event-free estimate) [43]: 1.0000 | Cumulative number of events [44]: 17 | Number of events [44]: 4 | Probability of no breakthrough overt HE (Kaplan-Meier event-free estimate) [44]: 0.9071 | Cumulative number of events [45]: 23 | Number of events [45]: 6 | Probability of no breakthrough overt HE (Kaplan-Meier event-free estimate) [45]: 0.8783 | Cumulative number of events [46]: 30 | Number of events [46]: 7 | Probability of no breakthrough overt HE (Kaplan-Meier event-free estimate) [46]: 0.8344 | Cumulative number of events [47]: 31 | Number of events [47]: 1 | Probability of no breakthrough overt HE (Kaplan-Meier event-free estimate) [47]: 0.7820 | Cumulative number of events [48]: 31 | Number of events [48]: 0 | Probability of no breakthrough overt HE (Kaplan-Meier event-free estimate) [48]: 0.7740 | proportion of subjects with breakthrough overt HE (first study, rifaximin group): 22% | subjects who experienced breakthrough overt HE episodes (of 140) (first study, rifaximin group, 6-month period, up to Day 170): 31 | time to breakthrough HE event vs placebo (FIG. 2, Kaplan Meier) (in vivo): increased time to breakthrough HE events
